Data: the CheMixHub viscosity set
“And” between values parts separate entries of the source, which are not always exact repeats. Equal values may be shown once.

Test: xn = mol fraction of the nth substance listed

c1ccncc1 + CS(C)=O
viscosity [mPa·s], 101.3 kPa
Conditions	298.15 K	308.15 K	318.15 K
x1 = 0.041	1.859	1.535	1.246
x1 = 0.089	1.803	1.47	1.191
x1 = 0.18	1.6	1.318	1.098
x1 = 0.274	1.488	1.2	1.042
x1 = 0.369	1.38	1.13	0.972
x1 = 0.468	1.28	1.044	0.922
x1 = 0.569	1.185	0.984	0.858
x1 = 0.673	1.097	0.913	0.795
x1 = 0.779	1.029	0.849	0.753
x1 = 0.888	0.969	0.791	0.723
x1 = 0.943	0.975	0.76	0.715

CCCCCCC(C)O (configuration not stated) + CCCCCCCCCCCCCC
298.15 K, 101 kPa
Conditions	viscosity [mPa·s]
x1 = 0.0003	2.081
x2 = 0.0555	5.619
x2 = 0.0999	5.163
x2 = 0.1555	4.632
x2 = 0.1998	4.238
x2 = 0.2554	3.786
x2 = 0.2998	3.455
x2 = 0.3555	3.081
x2 = 0.3999	2.813
x2 = 0.4554	2.519
x2 = 0.4999	2.314
x2 = 0.5555	2.098
x2 = 0.5998	1.957
x2 = 0.6554	1.82
x2 = 0.7	1.741
x2 = 0.7555	1.683
x2 = 0.8	1.668
x2 = 0.8555	1.688
x2 = 0.9	1.736
x2 = 0.9553	1.835

C[N+](C)(CCO)CCO.[Cl-] + NC(N)=O
100 kPa, x1 = 0.5
Conditions	viscosity [mPa·s]
293.15 K	3865
298.15 K	2440
303.15 K	1596
308.15 K	1065
313.15 K	724
318.15 K	514
323.15 K	368

c1ccncc1 + CCCO
101 kPa
Conditions	viscosity [mPa·s]
303.15 K, x1 = 0.2999	1.165
303.15 K, x1 = 0.5	0.9865
308.15 K, x1 = 0.2999	1.065
313.15 K, x1 = 0.1001	1.205
323.15 K, x1 = 0.3998	0.7875

NCCNCCNCCN + CCO
313.15 K, 100 kPa
Conditions	viscosity [mPa·s]
x1 = 0.02	0.94
x1 = 0.034	1.1
x1 = 0.073	1.47
x1 = 0.17	2.67

c1ccncc1 + CC(O)CO
101 kPa
Conditions	viscosity [mPa·s]
293.15 K, x1 = 0.2999	15.55
303.15 K, x1 = 0.8	1.425
308.15 K, x1 = 0.7001	1.795
318.15 K, x1 = 0.4	3.855

CC(O)CCO (configuration not stated) + CN1CCCC1=O
308.15 K, 101 kPa
Conditions	viscosity [mPa·s]
x1 = 0.0282	1.736
x1 = 0.0582	1.864
x1 = 0.1089	2.153
x1 = 0.2015	2.678
x1 = 0.3004	3.197
x1 = 0.4043	4.211
x1 = 0.4985	6.742
x1 = 0.5972	9.628
x1 = 0.7036	14.66
x1 = 0.798	22.77
x1 = 0.9029	34.77
x1 = 0.94	43.52
x1 = 0.9796	51.25

c1c[nH]cn1 + CC(=O)O
101 kPa, x1 = 0.5
Conditions	viscosity [mPa·s]
303.15 K	54
323.15 K	20

c1ccncc1 + CCO
298.15 K, 101 kPa
Conditions	viscosity [mPa·s]
x1 = 0.2992	1.034
x1 = 0.4997	0.9591
x1 = 0.6607	0.8792
x1 = 0.7996	0.8773

c1c[nH]cn1 + O=C1CCCCCN1
101 kPa, x2 = 0.5
Conditions	viscosity [mPa·s]
303.2 K	49.07
313.1 K	25
323.1 K	16.2

CC(O)CCO (configuration not stated) + CN(C)C=O
308.15 K, 101 kPa
Conditions	viscosity [mPa·s]
x1 = 0.0531	0.762
x1 = 0.1	0.87
x1 = 0.1985	1.178
x1 = 0.3069	1.688
x1 = 0.4018	2.399
x1 = 0.4993	3.462
x1 = 0.6107	6.621
x1 = 0.6844	9.795
x1 = 0.7882	17.12
x1 = 0.8916	28.94
x1 = 0.9544	38.83

CCCCCCC(C)O (configuration not stated) + CCCCCCCCCCCC
298.15 K, 101 kPa
Conditions	viscosity
x1 = 0.0003	1.337 mPa·s
x2 = 0.0554	5.513 mPa·s and 5.51 mPa·s
x2 = 0.0999	4.916 mPa·s and 4.92 mPa·s
x2 = 0.1554	4.254 mPa·s and 4.25 mPa·s
x2 = 0.1998	3.786 mPa·s and 3.79 mPa·s
x2 = 0.2555	3.272 mPa·s and 3.27 mPa·s
x2 = 0.2998	2.916 mPa·s and 2.92 mPa·s
x2 = 0.3554	2.532 mPa·s and 2.53 mPa·s
x2 = 0.3998	2.27 mPa·s and 2.27 mPa·s
x2 = 0.4554	1.995 mPa·s and 2 mPa·s
x2 = 0.4999	1.813 mPa·s and 1.81 mPa·s
x2 = 0.5555	1.627 mPa·s and 1.63 mPa·s
x2 = 0.5998	1.508 mPa·s and 1.51 mPa·s
x2 = 0.6555	1.391 mPa·s and 1.39 mPa·s
x2 = 0.6998	1.32 mPa·s and 1.32 mPa·s
x2 = 0.7554	1.253 mPa·s and 1.25 mPa·s
x2 = 0.7998	1.213 mPa·s and 1.21 mPa·s
x2 = 0.8555	1.176 mPa·s and 1.18 mPa·s
x2 = 0.8999	1.152 mPa·s and 1.15 mPa·s
x2 = 0.9555	1.124 mPa·s and 1.12 mPa·s

CC(=O)[O-].C[N+](C)(C)CCO + O
Conditions	viscosity [mPa·s]
298 K, 101.33 kPa, x2 = 0.8	30.5

CCCCCCCCCC(=O)O + CC(C)[C@@H]1CC[C@@H](C)C[C@H]1O
viscosity [mPa·s]
Conditions	293.15 K	298 K	298.15 K	303.15 K	308.15 K	313.15 K	318.15 K	323.15 K
100 kPa, x1 = 0.333	28.37	–	21.15	16.15	12.59	10	8.08	6.63
100 kPa, x1 = 0.4	24.68	–	18.85	14.7	11.68	9.43	7.73	6.42
100 kPa, x1 = 0.5	22	–	17.5	13.5	11	9	7.5	6.3
101 kPa, x2 = 0.333	–	16.3	–	–	–	–	–	–

CCCCCCC(C)O (configuration not stated) + Brc1ccccc1
viscosity [mPa·s], 101 kPa
Conditions	298.15 K	303.15 K
x2 = 0.0495	5.76	4.559
x2 = 0.1184	4.748	3.795
x2 = 0.1814	4.027	3.25
x2 = 0.2506	3.367	2.769
x2 = 0.2943	3.034	2.532
x2 = 0.3711	2.576	2.178
x2 = 0.4297	2.285	1.961
x2 = 0.5077	1.983	1.738
x2 = 0.5834	1.766	1.554
x2 = 0.6524	1.587	1.418
x2 = 0.7315	1.41	1.275
x2 = 0.8025	1.3	1.174
x2 = 0.8722	1.192	1.093
x2 = 0.9483	1.107	1.03

Cl.NNC(N)=O + O
viscosity [mPa·s], 101 kPa
Conditions	293.15 K	298.15 K	303.15 K	308.15 K	313.15 K	318.15 K
x1 = 0.000452	1.008	0.8953	0.8016	0.7228	–	0.6
x1 = 0.000904	1.014	0.9003	0.8058	0.7263	0.6589	0.6026
x1 = 0.00135	–	0.9052	0.81	0.7299	0.6619	0.6051
x1 = 0.001798	–	0.9101	0.8142	–	–	0.6077
x1 = 0.002249	–	0.915	0.8183	0.737	0.6679	0.6102
x1 = 0.00269	1.037	0.9199	0.8224	0.7404	0.6708	0.6127
x1 = 0.003585	1.049	0.9296	0.8306	0.7475	0.6767	0.6176
x1 = 0.004482	1.06	0.9395	0.8389	0.7543	0.6826	0.6226
x1 = 0.005372	1.072	0.9492	0.8472	0.7612	0.6884	0.6275
x1 = 0.006264	1.083	0.959	0.8554	0.7682	0.6944	0.6324
x1 = 0.007149	1.095	0.9687	0.8637	0.775	0.7001	0.6373
